Key:
[1] = target: D(2) dopamine receptor (Homo sapiens, UniProt P14416); assay: Displacement of [3H]methylspiperone from dopamine D2 receptor expressed in CHO cells; format: cell-based
[2] = target: D(1A) dopamine receptor (Homo sapiens, UniProt P21728); assay: Displacement of [3H]SCH 23390 from dopamine D1 receptor expressed in CHO cells; format: cell-based
Chain of D(1A) dopamine receptor (P21728 whole entry): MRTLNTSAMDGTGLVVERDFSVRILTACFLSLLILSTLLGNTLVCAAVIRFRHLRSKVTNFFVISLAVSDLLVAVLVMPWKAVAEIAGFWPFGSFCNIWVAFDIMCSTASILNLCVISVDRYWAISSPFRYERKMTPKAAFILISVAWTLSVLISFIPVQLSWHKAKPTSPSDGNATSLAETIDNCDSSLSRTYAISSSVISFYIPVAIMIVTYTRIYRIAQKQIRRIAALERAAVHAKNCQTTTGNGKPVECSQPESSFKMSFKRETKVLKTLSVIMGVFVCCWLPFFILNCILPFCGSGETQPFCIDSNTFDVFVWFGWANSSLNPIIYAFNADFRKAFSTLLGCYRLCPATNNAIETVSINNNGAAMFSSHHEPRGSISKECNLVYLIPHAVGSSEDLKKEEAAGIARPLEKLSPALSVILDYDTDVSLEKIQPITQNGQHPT

Chain of D(2) dopamine receptor (P14416 whole entry): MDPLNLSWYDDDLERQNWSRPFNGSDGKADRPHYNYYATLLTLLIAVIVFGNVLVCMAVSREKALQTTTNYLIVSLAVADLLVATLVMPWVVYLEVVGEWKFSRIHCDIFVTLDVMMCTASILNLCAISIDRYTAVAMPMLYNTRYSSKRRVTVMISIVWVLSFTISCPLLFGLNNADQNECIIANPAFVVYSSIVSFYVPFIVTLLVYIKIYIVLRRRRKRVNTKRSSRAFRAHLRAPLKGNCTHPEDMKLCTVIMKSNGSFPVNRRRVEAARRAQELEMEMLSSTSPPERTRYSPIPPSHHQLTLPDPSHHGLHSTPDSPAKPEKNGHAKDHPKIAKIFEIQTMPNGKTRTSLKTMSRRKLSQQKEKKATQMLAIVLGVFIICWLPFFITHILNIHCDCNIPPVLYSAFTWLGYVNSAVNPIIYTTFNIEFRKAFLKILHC

`Cc1ccc(S(=O)(=O)N2c3ccc(Cl)cc3N=C(N3CCN(C)CC3)c3ccccc32)cc1` was tested, and the Ki [1] was 0.338 µM and the Ki [2] was 0.065 µM.

`COc1ccccc1CNN1c2ccc(Cl)cc2N=C(N2CCN(C)CC2)c2ccccc21` was tested, and the Ki [1] was 0.202 µM and the Ki [2] was 0.06 µM.

`Clc1ccc2c(c1)N=C(N1CCN(Cc3cccc4c3OCO4)CC1)c1ccccc1N2` showed a Ki [1] of 0.08 µM and a Ki [2] of 0.637 µM.

With `CN1CCN(C2=Nc3cc(Cl)ccc3N(NC(=O)c3ccc(C#N)cc3)c3ccccc32)CC1` the Ki [1] was > 2 µM and the Ki [2] was 0.068 µM.

`CN1CCN(C2=Nc3cc(Cl)ccc3N(C(=O)Nc3cc(Cl)cc(Cl)c3)c3ccccc32)CC1` showed a Ki [1] of 3.9 µM and a Ki [2] of 0.175 µM.

Compound `CN1CCN(C2=Nc3cc(Cl)ccc3N(NC(=O)c3cccc(C#N)c3)c3ccc(Cl)cc32)CC1` has a Ki [1] of 0.175 µM and a Ki [2] of 0.047 µM.

With `CN1CCN(C2=Nc3cc(Cl)ccc3N(NC(=O)c3cc(F)c(F)c(F)c3F)c3ccccc32)CC1` the Ki [1] was 1.28 µM and the Ki [2] was 0.032 µM.

With `CN1CCN(C2=Nc3cc(Cl)ccc3N(NC(=O)c3ccc4c(c3)OCO4)c3ccc(Cl)cc32)CC1` the Ki [1] was 0.286 µM and the Ki [2] was 0.13 µM.

Work on `COc1cccc(OC)c1C(=O)NN1c2ccc(Cl)cc2N=C(N2CCN(C)CC2)c2cc(Cl)ccc21` yielded a Ki [1] of 0.097 µM and a Ki [2] of 0.011 µM.

`CN1CCN(C2=Nc3cc(Cl)ccc3N(NC(=O)c3cccc(C#N)c3)c3ccccc32)CC1` showed a Ki [1] of 3.65 µM and a Ki [2] of 0.062 µM.

`CN1CCN(C2=Nc3cc(Cl)ccc3N(NC(=O)c3ccccc3Cl)c3ccccc32)CC1` gave a Ki [2] of 0.0041 µM.

`CN1CCN(C2=Nc3cc(Cl)ccc3N(NC(=O)c3ccccc3I)c3ccc(Cl)cc32)CC1` gave a Ki [1] of 0.036 µM and a Ki [2] of 0.012 µM.

`CC(C)CN1CCN(C2=Nc3cc(Cl)ccc3N(NC(=O)c3ccccc3Cl)c3ccccc32)CC1` was tested, and the Ki [1] was > 3 µM and the Ki [2] was 0.081 µM.

`CCC(CC)CN1CCN(C2=Nc3cc(Cl)ccc3N(NC(=O)c3ccccc3Cl)c3ccccc32)CC1` was tested, and the Ki [1] was > 3 µM and the Ki [2] was 0.505 µM.

`COc1cc(C(=O)NN2c3ccc(Cl)cc3N=C(N3CCN(C)CC3)c3cc(Cl)ccc32)cc(OC)c1OC` showed a Ki [1] of 0.267 µM and a Ki [2] of 0.016 µM.

Compound `CN1CCN(C2=Nc3ccccc3N(NC(=O)c3cc(F)c(F)c(F)c3F)c3ccc(Cl)cc32)CC1` has a Ki [1] of 0.759 µM and a Ki [2] of 0.156 µM.

In the case of `CN1CCN(C2=Nc3ccccc3N(NC(=O)c3cc(F)ccc3C(F)(F)F)c3ccc(Cl)cc32)CC1`, the Ki [1] is reported as 0.421 µM and the Ki [2] is reported as 0.022 µM.

`Fc1ccc(CN2CCN(C3=Nc4cc(Cl)ccc4Nc4ccccc43)CC2)c(F)c1` showed a Ki [1] of 0.177 µM and a Ki [2] of 0.835 µM.

`CN1CCN(C2=Nc3ccccc3N(NC(=O)c3ccc(C#N)cc3)c3ccc(Cl)cc32)CC1` showed a Ki [1] of 1.97 µM and a Ki [2] of 0.064 µM.

Compound `CN1CCN(C2=Nc3ccccc3N(NC(=O)c3cccc(C#N)c3)c3ccc(Cl)cc32)CC1` has a Ki [1] of 1.19 µM and a Ki [2] of 0.099 µM.

In the case of `COc1cccc(C(=O)NN2c3ccccc3N=C(N3CCN(C)CC3)c3cc(Cl)ccc32)c1`, the Ki [1] is reported as 1.38 µM and the Ki [2] is reported as 0.086 µM.

In the case of `CCCN1CCN(C2=Nc3cc(Cl)ccc3N(NC(=O)c3ccccc3Cl)c3ccccc32)CC1`, the Ki [1] is reported as 0.409 µM and the Ki [2] is reported as 0.026 µM.

In the case of `CN1CCN(C2=Nc3cc(Cl)ccc3N(NC(=O)c3cc(F)c(F)c(F)c3F)c3ccc(Cl)cc32)CC1`, the Ki [1] is reported as 0.27 µM and the Ki [2] is reported as 0.098 µM.

`CN1CCN(C2=Nc3ccccc3N(NC(=O)c3ccc4c(c3)OCO4)c3ccc(Cl)cc32)CC1` was tested, and the Ki [1] was 1.26 µM and the Ki [2] was 0.083 µM.

`Clc1ccc2c(c1)N=C(N1CCN(Cc3ccc4c(c3)OCCO4)CC1)c1ccccc1N2` was tested, and the Ki [1] was 0.029 µM and the Ki [2] was 0.583 µM.

`CN1CCN(C2=Nc3cc(Cl)ccc3N(NC(=O)c3ccc4c(c3)OCO4)c3ccccc32)CC1` was tested, and the Ki [1] was 0.828 µM and the Ki [2] was 0.056 µM.

Work on `CN1CCN(C2=Nc3ccccc3N(NC(=O)c3ccccc3I)c3ccc(Cl)cc32)CC1` yielded a Ki [1] of 0.231 µM and a Ki [2] of 0.007 µM.

For `COc1cccc(OC)c1C(=O)NN1c2ccccc2N=C(N2CCN(C)CC2)c2cc(Cl)ccc21`, the Ki [1] was 0.197 µM and the Ki [2] was 0.006 µM.

In the case of `O=C(NN1c2ccc(Cl)cc2N=C(N2CCN(Cc3ccccc3F)CC2)c2ccccc21)c1ccccc1Cl`, the Ki [1] is reported as > 2 µM and the Ki [2] is reported as 0.503 µM.

`FC(F)(F)Oc1cccc(CN2CCN(C3=Nc4cc(Cl)ccc4Nc4ccccc43)CC2)c1` was tested, and the Ki [1] was 0.0034 µM and the Ki [2] was 3.8 µM.

Compound `CCN1CCN(C2=Nc3cc(Cl)ccc3N(NC(=O)c3ccccc3Cl)c3ccccc32)CC1` has a Ki [1] of 0.709 µM and a Ki [2] of 0.054 µM.

In the case of `COc1ccc(C(=O)NN2c3ccc(Cl)cc3N=C(N3CCN(C)CC3)c3ccccc32)cc1`, the Ki [1] is reported as > 3 µM.

`CN1CCN(C2=Nc3cc(Cl)ccc3N(NC(=O)c3cccnc3)c3ccccc32)CC1` was tested, and the Ki [1] was 12.7 µM and the Ki [2] was 0.085 µM.

With `O=C(NN1c2ccc(Cl)cc2N=C(N2CCN(CC3CCCCC3)CC2)c2ccccc21)c1ccccc1Cl` the Ki [1] was > 3 µM and the Ki [2] was 0.294 µM.

`O=C(NN1c2ccc(Cl)cc2N=C(N2CCN(Cc3cccc4c3OCO4)CC2)c2ccccc21)c1ccccc1Cl` was tested, and the Ki [1] was > 2 µM and the Ki [2] was 0.571 µM.

Compound `COc1cc(C(=O)NN2c3ccccc3N=C(N3CCN(C)CC3)c3cc(Cl)ccc32)cc(OC)c1OC` has a Ki [1] of 3.23 µM and a Ki [2] of 0.02 µM.

`Cc1ccccc1S(=O)(=O)N1c2ccc(Cl)cc2N=C(N2CCN(C)CC2)c2ccccc21` showed a Ki [1] of 0.063 µM and a Ki [2] of 0.071 µM.

In the case of `O=C(NN1c2ccc(Cl)cc2N=C(N2CCN(Cc3ccc(F)cc3F)CC2)c2ccccc21)c1ccccc1Cl`, the Ki [1] is reported as > 3 µM and the Ki [2] is reported as 0.886 µM.

For `CN1CCN(C2=Nc3cc(Cl)ccc3N(NC(=O)c3ccccc3Br)c3ccccc32)CC1`, the Ki [1] was 0.792 µM and the Ki [2] was 0.016 µM.

With `Cc1ccc(CN2CCN(C3=Nc4cc(Cl)ccc4Nc4ccccc43)CC2)c(C)c1` the Ki [1] was 0.065 µM and the Ki [2] was 0.482 µM.

`CN1CCN(C2=Nc3cc(Cl)ccc3N(NC(=O)c3cc(F)ccc3C(F)(F)F)c3ccc(Cl)cc32)CC1` gave a Ki [1] of 0.069 µM and a Ki [2] of 0.024 µM.

`Cc1ccccc1C(=O)N1c2ccc(Cl)cc2N=C(N2CCN(C)CC2)c2ccccc21` gave a Ki [1] of 4.93 µM and a Ki [2] of 1.23 µM.

For `CN1CCN(C2=Nc3cc(Cl)ccc3N(NC(=O)c3ccc(C#N)cc3)c3ccc(Cl)cc32)CC1`, the Ki [1] was 0.194 µM and the Ki [2] was 0.051 µM.

`O=C(NN1c2ccc(Cl)cc2N=C(N2CCN(Cc3cccc(OC(F)(F)F)c3)CC2)c2ccccc21)c1ccccc1Cl` was tested, and the Ki [1] was > 3 µM and the Ki [2] was 2.57 µM.

`O=C(NN1c2ccc(Cl)cc2N=C(N2CCN(Cc3ccc4c(c3)OCCO4)CC2)c2ccccc21)c1ccccc1Cl` was tested, and the Ki [1] was > 2 µM and the Ki [2] was 0.238 µM.

`COc1ccccc1C(=O)NN1c2ccc(Cl)cc2N=C(N2CCN(C)CC2)c2ccccc21` showed a Ki [1] of 1.13 µM and a Ki [2] of 0.013 µM.

`CC(C)N1CCN(C2=Nc3cc(Cl)ccc3N(NC(=O)c3ccccc3Cl)c3ccccc32)CC1` gave a Ki [1] of 0.998 µM and a Ki [2] of 0.191 µM.

For `O=C(NN1c2ccc(Cl)cc2N=C(N2CCN(Cc3cccc4c3OC(F)(F)O4)CC2)c2ccccc21)c1ccccc1Cl`, the Ki [1] was > 3 µM and the Ki [2] was 4.75 µM.

Work on `COc1cc(C(=O)NN2c3ccc(Cl)cc3N=C(N3CCN(C)CC3)c3ccccc32)cc(OC)c1OC` yielded a Ki [1] of 5.56 µM and a Ki [2] of 0.031 µM.

Compound `Cc1ccccc1C(=O)NN1c2ccc(Cl)cc2N=C(N2CCN(C)CC2)c2cc(Cl)ccc21` has a Ki [1] of 0.175 µM and a Ki [2] of 0.002 µM.

`CN1CCN(C2=Nc3cc(Cl)ccc3N(NC(=O)c3cccc(C(F)(F)F)c3)c3ccccc32)CC1` was tested, and the Ki [1] was 1.36 µM and the Ki [2] was 0.148 µM.

Work on `COc1cccc(C(=O)NN2c3ccc(Cl)cc3N=C(N3CCN(C)CC3)c3cc(Cl)ccc32)c1` yielded a Ki [1] of 0.139 µM and a Ki [2] of 0.044 µM.

`CN1CCN(C2=Nc3cc(Cl)ccc3N(NC(=O)c3ccncc3)c3ccccc32)CC1` gave a Ki [1] of 28.4 µM and a Ki [2] of 0.086 µM.

`CN1CCN(C2=Nc3cc(Cl)ccc3N(NC(=O)c3cccc(F)c3F)c3ccccc32)CC1` gave a Ki [2] of 0.016 µM.

For `FC1(F)Oc2cccc(CN3CCN(C4=Nc5cc(Cl)ccc5Nc5ccccc54)CC3)c2O1`, the Ki [1] was 0.008 µM and the Ki [2] was 3.11 µM.

For `Cc1ccccc1C(=O)NN1c2ccccc2N=C(N2CCN(C)CC2)c2cc(Cl)ccc21`, the Ki [1] was 1.57 µM and the Ki [2] was 0.048 µM.

`CC(C)(C)CN1CCN(C2=Nc3cc(Cl)ccc3N(NC(=O)c3ccccc3Cl)c3ccccc32)CC1` was tested, and the Ki [1] was > 3 µM and the Ki [2] was 0.447 µM.

With `Cc1ccc(CN2CCN(C3=Nc4cc(Cl)ccc4N(NC(=O)c4ccccc4Cl)c4ccccc43)CC2)c(C)c1` the Ki [1] was > 3 µM and the Ki [2] was 1.1 µM.

`CN1CCN(C2=Nc3cc(Cl)ccc3N(NC(=O)c3ccc(F)cc3C(F)(F)F)c3ccccc32)CC1` was tested, and the Ki [1] was 1.62 µM and the Ki [2] was 0.049 µM.
